Laboratory results from patent US4518587A, “Dipeptides of L-5-hydroxytryptophan, processes for their preparation and drugs in which they are present” (S.A. Panmedica, priority 1983, dated 1985).
Where two headings read alike, the source gives them in different places. Square brackets hold non-standard residues; d marks the D form. Peptide text beside a SMILES is read from it. * marks the point of attachment. Trp(5-OH) = N[C@@H](Cc1c[nH]c2ccc(O)cc12)C(=O)O; OtBu = CC(C)(C)O*; tBu = CC(C)(C)*

Tested on: brain levels of L-5-hydroxytryptophan (L-5-HTP), serotonin (5-HT) and 5-hydroxyindoleacetic acid (5-HIAA)
Test: Biochemical analysis of brain levels of L-5-HTP, 5-HT and 5-HIAA one hour after a single dose (technique of CURZON and GREEN)
Assay type: in vivo, rats
Settings: for change in vivo at 50 mg/kg / change in vivo at 10 mg/kg / change in vivo at 25 mg/kg: Rattus norvegicus, 1 h; for change in vivo at 10 mg/kg: read-out: %, relative to the controls, of L-5-HTP at dose of 10 mg/kg
Experimental: Biochemical analysis of the brain levles of L-5-hydroxytryptophan (L-5-HTP), serotonin (5-HT) and its first metabolite, 5-hydroxyindoleacetic acid (5- HIAA), was carried out one hour after the administration of a single dose to adult rats by the technique of CURZON and GREEN. Three doses were studied, i.e. 10, 25 and 50 mg/kg, 10 animals being used per dose. Table I below indicates the percentage increases in 5-HTP, 5-HT and 5-HIAA relative to the levels found in the control animals: […]

[1] = brain level, adult rats, single dose 10 mg/kg, one hour after administration, percentage increase relative to control animals
[2] = brain level, adult rats, single dose 25 mg/kg, one hour after administration, percentage increase relative to control animals
[3] = brain level, adult rats, single dose 50 mg/kg, one hour after administration, percentage increase relative to control animals
[4] = read-out: %, relative to the controls, of 5-HT at dose of 50 mg/kg
[5] = read-out: %, relative to the controls, of L-5-HTP at dose of 25 mg/kg
[6] = brain level, adult rats, single dose 25 mg/kg, one hour after administration, percentage increase relative to control animals, read-out: %, relative to the controls, of 5-HIAA at dose of 25 mg/kg
[7] = brain level, adult rats, single dose 25 mg/kg, one hour after administration, percentage increase relative to control animals, read-out: %, relative to the controls, of L-5-HTP at dose of 25 mg/kg
[8] = brain level, adult rats, single dose 50 mg/kg, one hour after administration, percentage increase relative to control animals, read-out: %, relative to the controls, of 5-HIAA at dose of 50 mg/kg
[9] = brain level, adult rats, single dose 50 mg/kg, one hour after administration, percentage increase relative to control animals, read-out: %, relative to the controls, of 5-HT at dose of 50 mg/kg
[10] = read-out: %, relative to the controls, of 5-HIAA at dose of 25 mg/kg
[11] = read-out: %, relative to the controls, of 5-HIAA at dose of 50 mg/kg
[12] = brain level, adult rats, single dose 50 mg/kg, one hour after administration, percentage increase relative to control animals, read-out: %, relative to the controls, of L-5-HTP at dose of 50 mg/kg

| Compound | %, relative to the controls, of 5-HIAA at dose of 10 mg/kg [1] [%] | %, relative to the controls, of 5-HT at dose of 10 mg/kg [1] [%] | %, relative to the controls, of L-5-HTP at dose of 10 mg/kg [1] [%] | %, relative to the controls, of 5-HIAA at dose of 25 mg/kg [2] [%] | %, relative to the controls, of 5-HT at dose of 25 mg/kg [2] [%] | %, relative to the controls, of L-5-HTP at dose of 25 mg/kg [2] [%] | %, relative to the controls, of 5-HIAA at dose of 50 mg/kg [3] [%] | %, relative to the controls, of 5-HT at dose of 50 mg/kg [3] [%] | %, relative to the controls, of L-5-HTP at dose of 50 mg/kg [3] [%] | change in vivo at 10 mg/kg [1] [%] | change in vivo at 25 mg/kg [7] [%] | change in vivo at 50 mg/kg [9] [%] | further results |
| --- | --- | --- | --- | --- | --- | --- | --- | --- | --- | --- | --- | --- | --- |
| 5-HYDROXY-L-TRYPTOPHAN-L-VALINE [Example 9] | 70 | 12 | 300 | 250 | 40 | 900 | 320 | 45 | 1700 | – | – | – | – |
| 5-Hydroxy-L-tryptophyl-5-hydroxy-L-tryptophan hemihydrate [Example 13] | – | – | – | – | 5 | 50 | 10 | 5 | 50 | – | – | – | – |
| 5-Hydroxy-L-tryptophyl-γ-aminobutyric acid [Example 20] | 40 | 5 | 60 | 100 | 5 | 200 | 150 | 15 | 400 | – | – | – | – |
| N[C@@H](Cc1c[nH]c2ccc(O)cc12)C(=O)N[C@@H](CC(=O)O)C(=O)O.O.O.O [Example 2, 5-Hydroxy-L-tryptophyl-L-aspartic acid trihydrate] (H-[Trp(5-OH)]-Asp-OH) | – | 5 | – | – | 5 | – | – | – | – | – | – | – | change in vivo at 50 mg/kg [4]: 10%; change in vivo at 10 mg/kg: 200%; change in vivo at 25 mg/kg [5]: 600%; change in vivo at 50 mg/kg (read-out: %, relative to the controls, of L-5-HTP at dose of 50 mg/kg): 1000% |
| CCOC(=O)CC[C@H](NC(=O)[C@@H](N)Cc1c[nH]c2ccc(O)cc12)C(=O)OCC.Cl [Example 3, Diethyl 5-hydroxy-L-tryptophyl-L-glutamate hydrochloride] (H-[Trp(5-OH)]-Glu(OEt)-OEt) | 50 | 10 | – | – | – | – | – | – | – | 100 | 400 | 200 | change in vivo at 25 mg/kg [6]: 150%; change in vivo at 50 mg/kg [8]: 200% |
| N[C@@H](Cc1c[nH]c2ccc(O)cc12)C(=O)N[C@@H](CCC(=O)O)C(=O)O [Example 4, 5-Hydroxy-L-tryptophyl-L-glutamic acid] (H-[Trp(5-OH)]-Glu-OH) | – | 5 | – | – | 10 | – | – | – | – | 200 | 550 | 60 | – |
| COC(=O)[C@H](Cc1ccc(O)cc1)NC(=O)[C@@H](N)Cc1c[nH]c2ccc(O)cc12.Cl [Example 5, Methyl ester of 5-hydroxy-L-tryptophyl-L-tyrosine hydrochloride] (H-[Trp(5-OH)]-Tyr-OMe) | 55 | 12 | 200 | 160 | 10 | 450 | 170 | 40 | 1200 | – | – | – | – |
| COC(=O)[C@H](Cc1ccc(O)cc1)NC(=O)[C@H](Cc1c[nH]c2ccc(O)cc12)NC(C)=O [Example 6, Methyl ester of N-acetyl-5-hydroxy-L-tryptophyl-L-tyrosine] (Ac-[Trp(5-OH)]-Tyr-OMe) | – | – | – | – | 5 | – | – | 5 | – | – | – | – | – |
| COC(=O)[C@H](Cc1c[nH]c2ccc(O)cc12)NC(=O)[C@H](Cc1c[nH]c2ccc(O)cc12)NC(C)=O [Example 7, METHYL ESTER OF N-ACETYL-5-HYDROXY-L-TRYPTOPHYL-5-HYDROXY-L-TRYPTOPHAN] (Ac-[Trp(5-OH)]-[Trp(5-OH)]-OMe) | 10 | – | 10 | 20 | – | – | 20 | – | 30 | – | – | – | – |
| C[C@H](NC(=O)[C@@H](N)Cc1c[nH]c2ccc(O)cc12)C(=O)O.O [Example 8, 5-HYDROXY-L-TRYPTOPHYL-L-ALANINE HYDRATE] (H-[Trp(5-OH)]-Ala-OH) | 75 | – | – | – | 5 | – | – | – | – | – | – | – | change in vivo at 25 mg/kg [10]: 140%; change in vivo at 50 mg/kg [11]: 400%; change in vivo at 10 mg/kg: 200% |
| CC(C)C[C@H](NC(=O)[C@@H](N)Cc1c[nH]c2ccc(O)cc12)C(=O)O [Example 10, 5-HYDROXY-L-TRYPTOPHYL-L-LEUCINE] (H-[Trp(5-OH)]-Leu-OH) | 55 | – | – | – | 12 | – | – | – | – | 200 | 600 | 45 | change in vivo at 25 mg/kg [6]: 100%; change in vivo at 50 mg/kg [8]: 350% |
| N[C@@H](Cc1c[nH]c2ccc(O)cc12)C(=O)N1CCC[C@H]1C(=O)O [Example 11, 5-HYDROXY-L-TRYPTOPHYL-L-PROLINE] (H-[Trp(5-OH)]-Pro-OH) | – | 10 | – | – | – | – | – | – | – | 200 | 700 | 20 | change in vivo at 25 mg/kg [6]: 150%; change in vivo at 50 mg/kg [8]: 300% |
| N[C@@H](Cc1c[nH]c2ccc(O)cc12)C(=O)N[C@@H](Cc1ccccc1)C(=O)O [Example 12, 5-HYDROXY-L-TRYPTOPHYL-L-PHENYLALANINE] (H-[Trp(5-OH)]-Phe-OH) | – | – | – | – | – | – | – | – | – | – | – | – | change in vivo at 25 mg/kg [10]: 140%; change in vivo at 50 mg/kg [11]: 180%; change in vivo at 50 mg/kg [4]: 25%; change in vivo at 10 mg/kg: 170%; change in vivo at 25 mg/kg [5]: 500% |
| N[C@@H](Cc1c[nH]c2ccc(O)cc12)C(=O)N[C@@H](Cc1c[nH]c2ccccc12)C(=O)O [Example 14, 5-Hydroxy-L-tryptophyl-L-tryptophan] (H-[Trp(5-OH)]-Trp-OH) | – | – | – | – | 12 | – | – | – | – | 50 | 100 | 10 | change in vivo at 50 mg/kg [12]: 200% |
| CC(C)(C)OC[C@H](NC(=O)[C@@H](N)Cc1c[nH]c2ccc(O)cc12)C(=O)OC(C)(C)C [Example 15, Tert.-butyl ester of L-5-hydroxytryptophyl-O-tert.-butyl-L-serine] (H-[Trp(5-OH)]-Ser(tBu)-OtBu) | – | – | 200 | 60 | – | 400 | 150 | – | 900 | – | – | – | – |
| N[C@@H](Cc1c[nH]c2ccc(O)cc12)C(=O)N[C@@H](CO)C(=O)O [Example 16, L-5-HYDROXYTRYPTOPHYL-L-SERINE] (H-[Trp(5-OH)]-Ser-OH) | 10 | – | – | – | – | – | – | – | – | 170 | – | 15 | change in vivo at 25 mg/kg [6]: 30%; change in vivo at 50 mg/kg [8]: 150%; change in vivo at 50 mg/kg [12]: 900% |
